We go through three compounds from ChEMBL document CHEMBL1201862, “PubChem BioAssay data set” (2004).

A word on the EC50: it is the concentration needed to bring the measured effect to its halfway point. In general, IC50 refers to the concentration needed to halve the response being measured. The term AC50 denotes the concentration giving half of the maximal activity seen.

The source made the active and inactive calls. A value given as a limit tells only on which side of the number the result lay.

Experiment [1] can be described thus: Trypanosoma cruzi growth suppression in host cells – NIH3T3 host cells, beta-gal luminescence, confirmation (AID 2044).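 Also: intracellular parasites grown in NIH/3T3 mouse fibroblasts as host cells; luminescent beta-galactosidase reporter signal from transgenic T. cruzi replicating inside host cells; inhibitors lower the luminescence signal.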 In kind it is functional, cell-based.
The nature of experiment [2]: NIH3T3 cell viability loss – ATP luminescence, mouse fibroblasts, counter-screen, dose response (AID 2010).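 Also: cells exposed to compound for about 90 hours before reading.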 It is filed as functional, cell-based. A general note: A counterscreen serves to expose hits that act by an unwanted route or on another target.
Experiment [3] has as its target T1, Sentrin-specific protease 8 (Homo sapiens, UniProt Q96LD8).
T1 sequence (Q96LD8 whole entry): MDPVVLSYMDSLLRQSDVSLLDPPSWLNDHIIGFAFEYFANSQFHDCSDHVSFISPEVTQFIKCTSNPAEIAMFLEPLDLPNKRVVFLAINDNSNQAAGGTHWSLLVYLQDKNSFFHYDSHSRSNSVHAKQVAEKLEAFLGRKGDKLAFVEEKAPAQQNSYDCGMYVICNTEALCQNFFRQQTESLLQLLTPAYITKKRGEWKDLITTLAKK
Briefly: inhibition of human SENP8 cleavage activity – biochemical, luminescence, SAR follow-up (AID 504501). It is filed as functional.

The test system of experiment [4] is H4. Briefly: Inhibitors of Prion Protein 5' UTR mRNA Measured in Cell-Based System Using Plate Reader - 2078-01_Inhibitor_Dose_DryPowder_Activity. [Related pubchem assays (depositor defined):AID488894]. It is filed as functional. The settings on record: Homo sapiens.
The test system of experiment [5] is H4. In words: inhibitors of control reporter signal in H4 cells – cell-based, plate reader, dry powder samples, counter-screen for prion reporter project, dose response (AID 540255). It is filed as functional. Particulars: Homo sapiens.
The test system of experiment [6] is HEK293. Briefly: NOD2 signaling inhibitors in MDP-stimulated cells, cell-based, uHTS, luminescence (AID 2001). In kind it is functional. Particulars: Homo sapiens.
Experiment [7] concerns the target Nucleotide-binding oligomerization domain-containing protein 2 (Homo sapiens, UniProt Q9HC29). Briefly: inhibition of NOD2-driven NF-kB reporter – cell-based, luminescence, uHTS, HEK293 (AID 1566). It is filed as functional.
Experiment [8] concerns the target T2, Streptokinase A (Streptococcus pyogenes serotype M1, UniProt P10520).
T2 sequence (P10520 whole entry): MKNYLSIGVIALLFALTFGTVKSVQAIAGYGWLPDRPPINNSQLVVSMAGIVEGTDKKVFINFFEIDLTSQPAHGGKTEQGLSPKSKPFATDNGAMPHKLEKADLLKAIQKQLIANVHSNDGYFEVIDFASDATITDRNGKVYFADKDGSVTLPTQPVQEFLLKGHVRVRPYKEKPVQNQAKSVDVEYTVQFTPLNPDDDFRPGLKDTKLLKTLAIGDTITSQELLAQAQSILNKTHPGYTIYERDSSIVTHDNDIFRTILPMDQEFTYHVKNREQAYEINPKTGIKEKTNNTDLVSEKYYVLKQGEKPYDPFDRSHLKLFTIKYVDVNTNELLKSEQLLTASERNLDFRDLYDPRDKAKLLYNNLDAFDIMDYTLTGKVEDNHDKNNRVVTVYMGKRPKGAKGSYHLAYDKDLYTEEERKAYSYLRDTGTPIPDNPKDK
Briefly: viability-normalized secreted streptokinase activity reduction – plasminogen activation absorbance, OD405, dose response (AID 1914).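 Also: secreted streptokinase activity via plasminogen activation per viability signal from cell pellet.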 In kind it is functional, Streptococcus pyogenes M1 GAS.

The subject of experiment [9] is HEK293. Briefly: cells. In kind it is functional, cell-based. Particulars: Homo sapiens.
The subject of experiment [10] is HEK293. Briefly: cells. It is filed as functional, cell-based. The settings on record: Homo sapiens. The source holds these as a separate data set.
Experiment [11] can be described thus: bead-based luminescence quenchers, dual-tagged ARNT – biochemical, AlphaScreen, cherry-pick, artefact control for ARNT-TACC3 interaction inhibitor project, dose response (AID 651705).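 Also: AlphaScreen bead proximity signal that flags compounds interfering with the detection technology; potency reflects signal decrease which marks the compound as an assay artifact.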 It is filed as functional. A general note: Alpha assays give light when donor and acceptor beads are brought close together.
For experiment [12], the target named is SUMO-activating enzyme (Homo sapiens, UniProt Q9UBT2). Briefly: blockers of UBC9-mediated SUMO conjugation – biochemical, AlphaScreen, SUMOylation inhibitor project, confirmation (AID 2018). It is filed as functional.
SUMO-activating enzyme, sequence (Q9UBE0 whole entry): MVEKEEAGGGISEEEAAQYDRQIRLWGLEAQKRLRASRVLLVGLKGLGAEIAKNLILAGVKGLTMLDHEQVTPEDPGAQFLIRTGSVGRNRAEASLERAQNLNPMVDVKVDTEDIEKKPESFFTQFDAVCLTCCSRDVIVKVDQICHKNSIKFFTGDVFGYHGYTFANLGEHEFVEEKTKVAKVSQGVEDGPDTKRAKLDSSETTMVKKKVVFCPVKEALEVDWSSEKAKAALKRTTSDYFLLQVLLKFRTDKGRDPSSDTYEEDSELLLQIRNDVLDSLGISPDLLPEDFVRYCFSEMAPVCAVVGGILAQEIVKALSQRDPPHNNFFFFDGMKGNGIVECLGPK
SUMO-activating enzyme, sequence (Q9UBT2 whole entry): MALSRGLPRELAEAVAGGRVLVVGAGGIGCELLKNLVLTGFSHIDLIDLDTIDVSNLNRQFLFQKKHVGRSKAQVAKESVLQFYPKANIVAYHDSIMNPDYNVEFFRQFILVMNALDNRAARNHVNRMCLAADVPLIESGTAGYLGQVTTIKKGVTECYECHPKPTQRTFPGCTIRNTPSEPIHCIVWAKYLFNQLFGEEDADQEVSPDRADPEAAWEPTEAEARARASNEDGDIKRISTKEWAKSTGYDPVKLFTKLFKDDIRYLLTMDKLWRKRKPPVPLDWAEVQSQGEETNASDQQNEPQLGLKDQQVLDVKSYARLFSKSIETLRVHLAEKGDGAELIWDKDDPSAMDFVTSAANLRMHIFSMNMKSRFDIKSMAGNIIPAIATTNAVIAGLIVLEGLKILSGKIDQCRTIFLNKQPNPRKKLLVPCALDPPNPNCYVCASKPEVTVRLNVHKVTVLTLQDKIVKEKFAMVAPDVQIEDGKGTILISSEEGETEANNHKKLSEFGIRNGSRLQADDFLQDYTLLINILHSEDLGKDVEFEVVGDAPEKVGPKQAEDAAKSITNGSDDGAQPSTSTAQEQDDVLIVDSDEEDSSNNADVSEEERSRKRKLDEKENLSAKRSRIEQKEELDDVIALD

Nucleotide-binding oligomerization domain-containing protein 2, sequence (Q9HC29 whole entry, the tested form may be a part): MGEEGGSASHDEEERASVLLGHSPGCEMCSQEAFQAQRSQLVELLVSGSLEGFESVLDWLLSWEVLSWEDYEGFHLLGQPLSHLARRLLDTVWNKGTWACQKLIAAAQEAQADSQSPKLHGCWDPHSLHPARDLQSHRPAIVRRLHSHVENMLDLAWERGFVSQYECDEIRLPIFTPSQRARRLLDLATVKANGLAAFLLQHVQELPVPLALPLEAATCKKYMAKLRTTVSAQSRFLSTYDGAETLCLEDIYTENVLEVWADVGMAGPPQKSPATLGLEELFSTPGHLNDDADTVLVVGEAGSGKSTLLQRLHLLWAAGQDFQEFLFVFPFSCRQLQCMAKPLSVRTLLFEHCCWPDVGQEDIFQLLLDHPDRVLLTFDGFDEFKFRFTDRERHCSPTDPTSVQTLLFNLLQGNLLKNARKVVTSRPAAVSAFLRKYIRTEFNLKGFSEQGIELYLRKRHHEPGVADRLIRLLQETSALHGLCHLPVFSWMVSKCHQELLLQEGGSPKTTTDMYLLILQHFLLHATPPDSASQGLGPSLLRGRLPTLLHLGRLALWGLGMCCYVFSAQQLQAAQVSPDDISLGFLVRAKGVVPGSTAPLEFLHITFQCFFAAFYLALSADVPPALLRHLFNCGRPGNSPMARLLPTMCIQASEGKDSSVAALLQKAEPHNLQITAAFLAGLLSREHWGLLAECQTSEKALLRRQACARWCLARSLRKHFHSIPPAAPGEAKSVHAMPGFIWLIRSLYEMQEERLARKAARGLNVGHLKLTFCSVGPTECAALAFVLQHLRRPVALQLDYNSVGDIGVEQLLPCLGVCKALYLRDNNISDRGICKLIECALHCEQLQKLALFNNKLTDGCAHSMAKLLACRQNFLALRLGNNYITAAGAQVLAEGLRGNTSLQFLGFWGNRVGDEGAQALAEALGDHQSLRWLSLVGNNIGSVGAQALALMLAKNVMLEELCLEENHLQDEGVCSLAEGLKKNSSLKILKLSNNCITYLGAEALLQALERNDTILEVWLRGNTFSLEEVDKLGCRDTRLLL

As to `Cc1ccc(C(=O)NNc2cc(N3CCCC3)nc(N3CCCC3)n2)cc1`, the half-maximal effective concentration (EC50) is 2.3 µM (active) in [1] and > 30 µM (not active) in experiment [2]. Further, the IC50 in experiment [3] is 4.39 µM (active).

On to `Cc1cc(/C=C2\SC(=S)N(C)C2=O)c(C)n1-c1ccc(O)cc1`, for which the half-maximal activity concentration (AC50) in experiment [4] was 0.181 µM (active); in [5] it was 0.492 µM (active). The IC50 in [6] was 6.54 µM (inactive); in experiment [9], > 20 µM (inactive); in [10], 11.2 µM (active). Besides, the values for the concentration giving a half-maximal response (EC50) in [7] and in experiment [8] were 0.57 µM (active) and > 150 µM (not active), respectively.

In the case of `COC(=O)c1cccc(-c2ccc(C(c3c(C)n[nH]c3O)c3c(C)n[nH]c3O)o2)c1`, the AC50 in [11] is 107 µM (active). In addition, the IC50 in experiment [12] was 9.36 µM (active).
